Measured values published in patent US9249125B2, “Pyrazole derivatives as p38 MAP inhibitors” (RESPIVERT LIMITED, priority 2012, dated 2016).

What was measured:
GSK3α = GSK3α (Homo sapiens (Human), UniProt P49840); assay: GSK 3α enzyme inhibition (FRET, Z-LYTE); assay type: biochemical
How it was run: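 GSK3α (500 ng/mL stock) was preincubated 2 hr at RT with compound (4 to 0.004 μg/mL stocks), then FRET peptide (8 μM stock) and ATP (40 μM stock) added for 1 hr. Protease development for 1 hr cleaved unphosphorylated peptide; coumarin/fluorescein emission ratio reported phosphorylation.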

cSrc = cSrc (Homo sapiens (Human), UniProt P12931); assay: c-Src enzyme inhibition (FRET, Z-LYTE); assay type: biochemical
How it was run: (§1)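 Z-LYTE FRET kinase assay: enzyme (3000 or 2000 ng/mL stock, respectively) preincubated 2 h at RT with compound (4–0.004 μg/mL stocks), then FRET peptide plus ATP (800 μM stock for c-Src, 60 μM for Syk) added for 1 h. Protease development 1 h; phosphorylation from coumarin/fluorescein emission ratio.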

[1] = system: LPS-induced TNFα release in d-U937 cells; assay: LPS-induced TNFα release in d-U937 cells; assay type: cell-based; details: Homo sapiens, dU937, relative to 10 μg/mL BIRB796, read-out: LPS Induced Release of Cytokine in d-937 Cells TNFα REC50
How it was run: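 Human monocytic U937 cells were differentiated to macrophage-type cells with PMA (100 ng/mL) for 48 to 72 hr, pre-treated with test compound for 2 hr, then stimulated 4 hr with E. coli O111:B4 LPS (0.1 μg/mL). Supernatant TNFα and IL-8 were measured by sandwich ELISA; REC50 came from concentration-response curves.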

d-U937 cells = assay: Cell viability: MTT assay; assay type: cell-based, human; details: 1 μg/mL
How it was run: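 Differentiated U937 cells were exposed to compound at 1 or 10 μg/mL either 4 h in 5% FCS RPMI1640 or 24 h in 10% FCS RPMI1640, then given MTT for 1 h, DMSO-solubilised and read at 550 nm. Percent viability loss versus 0.5% DMSO vehicle; apparent gains appear negative.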

[2] = system: LPS-induced IL-8 release in d-U937 cells; assay: LPS-induced IL-8 release in d-U937 cells; assay type: cell-based; details: Homo sapiens, dU937, read-out: LPS Induced Release of Cytokine in d-937 Cells IL-8 IC50
How it was run: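 First, U937 monocytes undergo PMA treatment (100 ng/mL) for 48 to 72 hr to become macrophage-type. Next, compound at final concentrations is added for 2 hr, followed by LPS at 0.1 μg/mL for 4 hr. Finally, cytokines in the supernatant are quantified by ELISA against vehicle-treated cells.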

p38 MAPKα = p38 MAPKα (Homo sapiens (Human), UniProt Q16539); assay: p38 MAPKα enzyme inhibition (FRET, Z-LYTE); assay type: biochemical
Syk = Syk (Homo sapiens (Human), UniProt P43405); assay: Syk enzyme inhibition (FRET, Z-LYTE); assay type: biochemical
How it was run: as §1

[3] = system: Poly I:C-induced ICAM-1 expression in BEAS2B cells; assay: Poly I:C-induced ICAM-1 expression in BEAS2B cells; assay type: cell-based; details: Homo sapiens, BEAS-2B, read-out: Poly IC induced ICAM1 in BEAS2B IC50
How it was run: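 BEAS2B human bronchial epithelial cells pre-incubated with compound for 2 hr, then transfected with 1 μg/mL poly I:C plus Oligofectamine. At 18 hr, surface ICAM-1 measured by cell-based ELISA (HRP, OD450–655). Signal corrected for cell number by crystal violet OD595.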

HRV16 = HRV16 induced CPE in MRC5 cells; assay type: cell-based, human rhinovirus; details: for HRV induced CPE in MRC5 Cells % Inhibition Observed: screened at concentrations up to 0.32 ng/mL
Method: The supernatants are aspirated, and then fresh media added followed by incubation for 4 days. Where appropriate, cells are pre-incubated with compound or DMSO for 2 hr, and the compounds and DMSO added again after washout of the virus.
Supernatants are aspirated and incubated with methylene blue solution (100 μL, 2% formaldehyde, 10% methanol and 0.175% Methylene Blue) for 2 hr at RT. […] The percentage inhibition for each well is calculated. The IC50 value is calculated from the concentration-response curve generated by the serial dilutions of the test compounds.

[4] = system: LPS-induced airways neutrophilia in mice; assay: LPS-induced neutrophil accumulation in mice; assay type: in vivo; details: Test Substance at 0.2 mg/mL, intra tracheal, dosed 8 hr pre-LPS challenge
Method: Non-fasted Balb/c mice are dosed by the intra tracheal route with either vehicle, or the test substance at the indicated times (within the range 2-8 hr) before stimulation of the inflammatory response by application of an LPS challenge. At T=0, mice are placed into an exposure chamber and exposed to LPS (7.0 mL, 0.5 mg/mL solution in PBS) for 30 min). After a further 8 hr the animals are anesthetized, their tracheas cannulated and BALF extracted by infusing and then withdrawing from their lungs 1.0 mL of PBS via the tracheal catheter. Total and differential white cell counts in the BALF samples are measured using a Neubaur haemocytometer. Cytospin smears of the BALF samples are prepared by centrifugation at 200 rpm for 5 min at RT and stained using a DiffQuik stain system (Dade Behring). Cells are counted using oil immersion microscopy. Data for neutrophil numbers in BAL are shown as mean±S.E.M. (standard error of the mean). The percentage inhibition of neutrophil accumulation is calculated for each treatment relative to vehicle treatment.

Sequence of cSrc (P12931 whole entry, looked up): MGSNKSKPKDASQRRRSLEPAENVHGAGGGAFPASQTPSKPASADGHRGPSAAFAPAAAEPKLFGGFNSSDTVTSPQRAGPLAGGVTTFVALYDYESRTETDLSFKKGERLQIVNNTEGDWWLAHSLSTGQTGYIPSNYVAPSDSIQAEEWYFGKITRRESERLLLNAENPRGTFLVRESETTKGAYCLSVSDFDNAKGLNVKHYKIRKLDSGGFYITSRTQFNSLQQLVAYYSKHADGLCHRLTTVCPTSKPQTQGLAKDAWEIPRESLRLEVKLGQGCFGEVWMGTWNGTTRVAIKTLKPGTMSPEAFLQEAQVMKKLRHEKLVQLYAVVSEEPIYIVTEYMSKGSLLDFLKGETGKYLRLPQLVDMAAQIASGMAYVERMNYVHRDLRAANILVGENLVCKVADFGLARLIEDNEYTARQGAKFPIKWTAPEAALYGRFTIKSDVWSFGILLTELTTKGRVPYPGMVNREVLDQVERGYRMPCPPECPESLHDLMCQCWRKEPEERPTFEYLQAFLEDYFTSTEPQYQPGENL
Sequence of GSK3α (P49840 whole entry): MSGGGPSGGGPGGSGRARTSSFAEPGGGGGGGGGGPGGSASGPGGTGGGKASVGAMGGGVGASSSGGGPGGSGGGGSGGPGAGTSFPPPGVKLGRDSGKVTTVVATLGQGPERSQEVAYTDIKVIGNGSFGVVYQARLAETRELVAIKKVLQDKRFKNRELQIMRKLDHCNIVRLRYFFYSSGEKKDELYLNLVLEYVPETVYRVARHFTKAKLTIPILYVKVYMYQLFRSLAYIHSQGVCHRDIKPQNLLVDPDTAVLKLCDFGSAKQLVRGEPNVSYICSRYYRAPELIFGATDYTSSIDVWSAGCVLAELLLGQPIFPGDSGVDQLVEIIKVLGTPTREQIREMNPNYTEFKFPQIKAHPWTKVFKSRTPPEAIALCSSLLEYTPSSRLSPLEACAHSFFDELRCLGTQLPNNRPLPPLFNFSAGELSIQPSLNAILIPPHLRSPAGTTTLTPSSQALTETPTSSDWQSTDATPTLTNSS
Sequence of p38 MAPKα (Q16539 whole entry): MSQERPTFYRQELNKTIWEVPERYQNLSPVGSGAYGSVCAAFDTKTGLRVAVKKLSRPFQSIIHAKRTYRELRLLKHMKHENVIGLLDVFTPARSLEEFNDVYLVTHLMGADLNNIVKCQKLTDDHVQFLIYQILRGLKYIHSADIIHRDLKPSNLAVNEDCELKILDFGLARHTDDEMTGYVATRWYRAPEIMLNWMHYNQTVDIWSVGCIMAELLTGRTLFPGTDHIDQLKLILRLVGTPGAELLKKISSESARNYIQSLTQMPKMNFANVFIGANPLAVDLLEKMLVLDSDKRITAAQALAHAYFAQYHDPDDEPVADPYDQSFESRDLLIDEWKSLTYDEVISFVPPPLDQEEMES

IC50 (GSK3α) | IC50 (cSrc) | EC50 [1] | IC50 [2] | IC50 (p38 MAPKα) | IC50 (Syk) | SMILES | MTT Assay Cell viability at time point in d-U937 cells 4 h (d-U937 cells) | MTT Assay Cell viability at time point in d-U937 cells 24 h (d-U937 cells) | IC50 [3] | HRV induced CPE in MRC5 Cells % Inhibition Observed (HRV16) | IC50 (HRV16; Human rhinovirus sp., HRV16, MRC5, read-out: HRV induced CPE in MRC5 Cells IC50) | % Inhibition of neutrophil accumulation in BAL [4] | Neutrophil numbers in BAL (+/−SEM) [4]
2430 nM | 3 nM | 18.8 nM | 153 nM | 32 nM | 10 nM | CC(C)(C)c1cc(NC(=O)Nc2ccc(Oc3ccnc(Nc4ccc5[nH]ncc5c4)n3)c3ccccc23)n(-c2ccc(=O)n(CCN3CCOCC3)c2)n1 [Example 88, 1-(4-((2-((1H-indazol-5-yl)amino)pyrimidin-4-yl)oxy)naphthalen-1-yl)-3-(3-(tert-butyl)-1-(1-(2-morpholinoethyl)-6-oxo-1,6-dihydropyridin-3-yl)-1H-pyrazol-5-yl)urea] | −ve (−ve and +ve indicate that the value is below and above respectively, the no significant effect threshold, defined as 30% inhibition at 1 μg/mL at the time point indicated.) | −ve (−ve and +ve indicate that the value is below and above respectively, the no significant effect threshold, defined as 30% inhibition at 1 μg/mL at the time point indicated.) | 35.9 nM | 75% | – | – | –
> 1560 nM | > 1560 nM | 1.1 nM | 1.7 nM | 81 nM | 49 nM | Cc1ccc(-n2nc(C(C)(C)C)cc2NC(=O)Nc2ccc(Oc3ccnc(Nc4ccc5onc(N)c5c4)n3)c3ccccc23)cc1 [Example 5, 1-(4-((2-((3-Aminobenzo[d]isoxazol-5-yl)amino)pyrimidin-4-yl)oxy)naphthalen-1-yl)-3-(3-(tert-butyl)-1-(p-tolyl)-1H-pyrazol-5-yl)urea] | −ve (−ve and +ve indicate that the value is below and above respectively, the no significant effect threshold, defined as 30% inhibition at 1 μg/mL at the time point indicated.) | −ve (−ve and +ve indicate that the value is below and above respectively, the no significant effect threshold, defined as 30% inhibition at 1 μg/mL at the time point indicated.) | 0.6 nM | 100% | – | – | –
> 1530 nM | 5 nM | 1.7 nM | 1.4 nM | 67 nM | 5 nM | COc1ccc(-n2nc(C(C)(C)C)cc2NC(=O)Nc2ccc(Oc3ccnc(Nc4cc(C)c5[nH]ncc5c4)n3)c3ccccc23)cc1 [Example 42, 1-(3-(tert-butyl)-1-(4-methoxyphenyl)-1H-pyrazol-5-yl)-3-(4-((2-((7-methyl-1H-indazol-5-yl)amino)pyrimidin-4-yl)oxy)naphthalen-1-yl)urea] | −ve (−ve and +ve indicate that the value is below and above respectively, the no significant effect threshold, defined as 30% inhibition at 1 μg/mL at the time point indicated.) | +ve (−ve and +ve indicate that the value is below and above respectively, the no significant effect threshold, defined as 30% inhibition at 1 μg/mL at the time point indicated.) | 1.4 nM | – | – | 50% | 8.5 ± 1.5 ×10^5/mL

Second part, the compound before the results:

SMILES | IC50 (GSK3α) | IC50 (cSrc) | EC50 [1] | IC50 [2] | IC50 (p38 MAPKα) | IC50 (Syk) | MTT Assay Cell viability at time point in d-U937 cells 4 h (d-U937 cells) | MTT Assay Cell viability at time point in d-U937 cells 24 h (d-U937 cells) | IC50 [3] | HRV induced CPE in MRC5 Cells % Inhibition Observed (HRV16) | IC50 (HRV16; Human rhinovirus sp., HRV16, MRC5, read-out: HRV induced CPE in MRC5 Cells IC50) | % Inhibition of neutrophil accumulation in BAL [4] | Neutrophil numbers in BAL (+/−SEM) [4]
Cc1ccc(-n2nc(C(C)(C)C)cc2NC(=O)Nc2ccc(Oc3ccnc(Nc4ccc5c(c4)NC(=O)C5)n3)c3ccccc23)cc1 [Example 2, 1-(3-(tert-Butyl)-1-(p-tolyl)-1H-pyrazol-5-yl)-3-(4-((2-((2-oxoindolin-6-yl)amino)pyrimidin-4-yl)oxy)naphthalen-1-yl)urea] | > 15600 nM | 4 nM | 1.4 nM | 1.7 nM | 93 nM | 18 nM | −ve (−ve and +ve indicate that the value is below and above respectively, the no significant effect threshold, defined as 30% inhibition at 1 μg/mL at the time point indicated.) | −ve (−ve and +ve indicate that the value is below and above respectively, the no significant effect threshold, defined as 30% inhibition at 1 μg/mL at the time point indicated.) | 1.4 nM | 89% | – | – | –
CC(C)(C)c1cc(NC(=O)Nc2ccc(Oc3ccnc(Nc4ccc5[nH]ncc5c4)n3)c3ccccc23)n(-c2cccc(OCCN3CCOCC3)c2)n1 [Example 54, 1-(4-((2-((1H-indazol-5-yl)amino)pyrimidin-4-yl)oxy)naphthalen-1-yl)-3-(3-(tert-butyl)-1-(3-(2-morpholinoethoxy)phenyl)-1H-pyrazol-5-yl)urea] | 1980 nM | 7 nM | 8.7 nM | 24.8 nM | 11 nM | 9 nM | −ve (−ve and +ve indicate that the value is below and above respectively, the no significant effect threshold, defined as 30% inhibition at 1 μg/mL at the time point indicated.) | −ve (−ve and +ve indicate that the value is below and above respectively, the no significant effect threshold, defined as 30% inhibition at 1 μg/mL at the time point indicated.) | 10.3 nM | – | 0.4 nM | – | –
CC(C)(C)c1cc(NC(=O)Nc2ccc(Oc3ccnc(Nc4ccc5[nH]ncc5c4)n3)c3ccccc23)n(-c2ccc(OCCN3CCOCC3)nc2)n1 [Example 15, 1-(4-((2-((1H-Indazol-5-yl)amino)pyrimidin-4-yl)oxy)naphthalen-1-yl)-3-(3-(tert-butyl)-1-(6-(2-morpholinoethoxy)pyridin-3-yl)-1H-pyrazol-5-yl)urea] | 1420 nM | < 1 nM | 1.6 nM | 1.6 nM | 22 nM | 7 nM | −ve (−ve and +ve indicate that the value is below and above respectively, the no significant effect threshold, defined as 30% inhibition at 1 μg/mL at the time point indicated.) | −ve (−ve and +ve indicate that the value is below and above respectively, the no significant effect threshold, defined as 30% inhibition at 1 μg/mL at the time point indicated.) | 2.1 nM | 56% | – | – | –
